For series [1], the system named is xenograft mouse model made using ACHN. The series can be described thus: Change of tumor volume by intraperitoneal D-allose injection, ACHN xenograft mouse model. As to conditions: 400 mg/kg intraperitoneal once a day, on and after day 13, Mann-Whitney U test. It is filed as in vivo, mice. The method, then:
(§1) The experiment of the present example used two human renal cell carcinoma cell lines (Caki-I and ACHN). Each cell was cultured under the wet environment of 37° C. and 5% CO2 by using a RPMI-1640 culture solution (2000 mg D-glucose/L) containing a 10% fetal calf serum, a HEPES buffer, and penicillin-streptomycin.
(§2) With respect to a renal cell carcinoma xenograft mouse model, a 1.0×10^5 cells/ml of a cell suspension was obtained by adjusting the cultured cells with a MEM culture solution and then 0.1 ml of the resulting suspension was injected into the femoral subcutaneous tissue of Female athymic nude mice (BALB/c-nu/nu, 6-week-old). After checking that the tumor volume was 200 mm^3 or more one week after the injection, the mice were provided for the experiment thereafter.
The day when the tumor size of the renal cell carcinoma xenograft mouse models became 200 mm^3 or more was called day 0 and the intraperitoneal injection of a D-allose-containing solution was started from day 1. The solution injected is 0.4 mL of physiological saline or a solution obtained by dissolving 100 mg/kg or 400 mg/kg of D-allose in 0.4 mL physiological saline. […] The body weight of the mice and the long and short diameters of the tumor were measured over time twice a week. […]

For series [2], the system named is Caki-I tumor. Kind of series: D-allose concentration in tumor after intraperitoneal injection, Caki-I xenograft mouse model. As to conditions: Caki-I xenograft mice, 400 mg/kg intraperitoneal. It is filed as in vivo. The procedure:
as §1, §2
A 400 mg/kg/0.4 mL solution of rare sugar D-allose was prepared using physiological saline and was intraperitoneally injected into the xenograft mouse models of two human renal cell carcinoma cell lines (Caki-I and ACHN) through a 27 G needle. A tumor was enucleated from the mouse before […] administration and 1 hour, 2 hours, and 4 hours after the administration. […] A monosaccharide in the supernatant thus obtained was labeled with ABEE (4-aminobenzoic acid ethyl ester) and the quantitative analysis of D-allose was performed by HPLC (high performance liquid chromatography). […]

The test system of series [3] is kidney tissue. Kind of series: Kidney tissue histology in renal cell carcinoma xenograft mouse models. It counts as in vivo. The following applies: xenograft mice, intraperitoneal once a day, day 35; diagnosis by a medical specialist in pathology; FIG. 7. The procedure:
The day when the tumor size of the renal cell carcinoma xenograft mouse models became 200 mm^3 or more was called day 0 and the intraperitoneal injection of a D-allose-containing solution was started from day 1. The solution injected is 0.4 mL of physiological saline or a solution obtained by dissolving 100 mg/kg or 400 mg/kg of D-allose in 0.4 mL physiological saline. The resulting solution was intraperitoneally injected into three groups of mice (Control, 100 mg/kg of D-allose, and 400 mg/kg of D-allose) once a day for 5 weeks in total. The body weight of the mice and the long and short diameters of the tumor were measured over time twice a week. It is to be noted that the tumor volume was obtained as a product of long diameter×short diameter×short diameter of the tumor×0.5. […]
The tissue of the excised tumor, kidney, and liver was fixed with a 4% paraformaldehyde phosphate buffer, embedded with paraffin, and sliced into a 4-μm thick section. The resulting sliced section was stained with hematoxylin and eosin and evaluated by a medical specialist in pathology. The influence of D-allose on the tumor tissue was evaluated by a necrosis area (%) and an image of the number of nuclear fissions (Cells/HPF). It is to be noted that the necrosis area was measured using an image recording software Nikon NIS—Elements D and figures after the decimal point were omitted. […]

The test system of series [4] is renal cell carcinoma cell line (ACHN). Kind of series: Cell survival assay (MTT assay), ACHN. As to conditions: 10 mM, 25 mM and 50 mM in MEM, 24 hours, compared with Control (p<0.05), FIG. 1. It is filed as cell-based, human. The procedure:
The antitumor effect of rare sugars was analyzed using the three human renal cell carcinoma cell lines (ACHN, Caki-I, and Caki-II) used in Example 1. As the rare sugars, used were the following ten rare sugars: L-allulose, D-allulose, D-allose, L-fructose, D-mannose, L-sorbose, D-tagatose, D-galactose, D-sorbose, and L-tagatose, while as monosaccharides not belonging to rare sugars, D-glucose and D-fructose were used.
As a medium, a minimum essential medium (MEM) containing 1000 mg/l of D-glucose was used. By adjusting it to contain 10 mM, 25 mM, and 50 mM of each of the monosaccharides or rare sugars and using thus-obtained MEMs [shown by (10), (25), and (50) in the drawing], an antitumor effect of the rare sugars was evaluated.
A 5.0×10^4 cells/ml of each of cell suspensions was formed using MEM. The resulting suspension (0.1 ml/well) was distributed in a 96-well plate, followed by culturing for 24 hours. […]
The MTT assay is one of test methods for measuring survival and makes use of a color reaction of an insoluble formazan dye (blue) caused by the reduction of MTT which is a tetrazolium salt. […] The cell viability is determined by measuring this color reaction with a microplate reader.

The text below walks through data of US20250249025A1, “DRUG DELIVERY CARRIER UTILIZING PROPERTY OF D-ALLOSE BEING UPTAKEN BY CANCER CELL, DRUG DELIVERY METHOD, AND COMPOSITION FOR TREATING RENAL CELL CARCINOMA” (NATIONAL UNIVERSITY CORPORATION KAGAWA UNIVERSITY, priority 2019, published 2025).

As to `O=C[C@H](O)[C@H](O)[C@H](O)[C@H](O)CO` [D-allose], the “Tumor volume versus Control group” value in series [1] is given as “significantly smaller than the Control group”. Moreover, in series [2] (HPLC, FIG. 4), the “D-allose in tumor one hour after intraperitoneal injection” value is listed as “detected”. For the same compound, the “Time after injection at which D-allose concentration in tumor became the highest” value in series [2] (sampled 1, 2, 4 hours) is listed as “one”. The “Influence on the kidney tissue” value in series [3] is “No influence”. Further, the Viability entry in series [4] is “significantly reduced the viability”.
